Data on nine molecules can be found in PMC9026286, “Bacterial Lipodepsipeptides and Some of Their Derivatives and Cyclic Dipeptides as Potential Agents for Biocontrol of Pathogenic Bacteria and Fungi of Agrarian Plants” (Journal of Agricultural and Food Chemistry, 2022).

Values after ≈ are worked out from the molar mass of the structure shown. Where a SMILES comes first, the peptide text is derived from it. Bridges are numbered along the chain shown (N, C = ends). [ ]: non-standard residue; d: D form. The star is where a group is joined. ξ: configuration not given here. d(aThr) = C[C@@H](O)[C@@H](N)C(=O)O; Octanoyl(3-OH) = CCCCCC(O)CC(=O)*; X1 = CCCCCC(CC(=O)*)OC(C)=O; dDab = NCC[C@@H](N)C(=O)O; hSer = N[C@@H](CCO)C(=O)O; ξQ = NC(=O)CCC(N)C(=O)O; Dhb = C/C=C(\N)C(=O)O; ξL = CC(C)CC(N)C(=O)O; ξDab = NCCC(N)C(=O)O; ξK = NCCCCC(N)C(=O)O; ξT = CC(O)C(N)C(=O)O; ξV = CC(C)C(N)C(=O)O; ξAbu = CCC(N)C(=O)O; ξP = O=C(O)C1CCCN1; ξS = NC(CO)C(=O)O

The subject of assay [1] is all the bacteria and the fungus tested. Put plainly: Antimicrobial and antifungal tests, MIC ranges summarised over the panel. The assay is classed as cell-based. The note with it: for reduction of activity with respect to that of 9: compared with compound 9. The procedure: (§1) The experiment was performed in triplicate.
as §1

Assay [2] deals with Colletotrichum truncatum 17-5-5. The note with it: strain 17-5-5; lipodepsipeptides, serial dilutions from 0.1 to 1 μg/mL, potato dextrose broth, 24-well plates, 28 °C, 7 days; lowest concentration with no visible growth; triplicate.
Procedure: The antifungal activity was performed in 24-well culture plates according to the method previously described[31] with some modification. Serial dilutions of different lipodepsipeptides (from 0.1 to 1 μg/mL) and cyclic dipeptides (from 10 to 1000 μg/mL) were dissolved in a volume of 500 μL of ultrapure Milli-Q and finally inoculated with 500 μL of 2× potato dextrose broth (Difco) containing the Colletotrichum truncatum plug of 4 mm × 4 mm diameter. As a control, C. truncatum plugs (4 mm × 4 mm) were grown in 2× PD broth diluted with 500 μL of ultrapure Milli-Q water, and the plates were incubated at 28 °C for 7 days. The MIC was measured as the lowest concentration of antifungal agent at which there was no visible growth of the fungus after incubation. The experiment was performed in triplicate.
For a further assay, the system named is Rhodococcus fascians LMG. The note with it: cited from earlier work.
A further assay deals with Phytophthora infestans. The note with it: cited from earlier work.
Another assay relates to Plasmopara viticola. The note with it: cited from earlier work.
The next assay has as its system Bacillus subtilis PY79. The note with it: PY79, 48 h.
The test system of a further assay is Bacillus megaterium QMB. The note with it: 48 h.
The mark [3] stands for this setting: lipodepsipeptides and derivatives, range over all the bacteria and the fungus tested (summary of Table 1).
The mark [4] stands for this setting: 2,5-diketopiperazines, range over all microorganisms tested (summary of Table 2).

Procedure for Bacillus megaterium QMB: (§2) Bacteria were grown in LB broth at 25 or 37 °C overnight at 150 rpm. A total of 500 μL of a suspension containing about 10^8 cfu mL^–1 were added to 3 mL of LB soft agar (0.7%) and poured onto plates containing 7 mL of LB broth with agar 1.8%. After agar gelification, 10 μL drops of serial dilutions of different lipodepsipeptides and their derivatives (from 0.1 to 1 μg/mL) and cyclic dipeptides (from 10 to 1000 μg/mL) were tested. After 24 ± 48 h of incubation at 25 or 37 °C, the end serial dilution inhibiting the growth of the bacteria in the area of application of 10 μL solutions was recorded. The plates containing the bacteria alone were used as a control. The experiment was performed in triplicate.
Procedure for Bacillus subtilis PY79: as §2

`CCCCCC(O)CC(=O)NC(CC)C(=O)N1CCC[C@@H]1C(=O)N[C@H](CO)C(=O)N[C@H](CC(C)C)C(=O)N[C@@H](C(=O)N[C@H](CO)C(=O)N[C@H](CC(C)C)C(=O)N[C@@H](C(=O)N[C@H](C(=O)N[C@H](CCC(N)=O)C(=O)N[C@@H](CC(C)C)C(=O)N[C@@H](C(=O)NC(CC)C(=O)N[C@H]1C(=O)N[C@@H]([C@@H](C)CC)C(=O)N[C@@H](CCO)C(=O)N[C@H](CCN)C(=O)N[C@@H](CCCCN)C(=O)O[C@@H]1C)C(C)C)C(C)C)C(C)C)C(C)C` (stereo partly drawn) [compound 16, tetrahydro tolaasin I] ({Octanoyl(3-OH)}-[ξAbu][dP][dS][dL][dV][dS][dL][dV]V[dQ]L[dV][ξAbu][d(aThr)]I[hSer][dDab]K; ester 14-C) returned an MIC range in assay [1] (setting [3]) of 0.2 to 3 µg/mL. This molecule also gave an MIC in assay [2] of 3 µg/mL (≈ 1.51 µM).

As for cyclo(L-Pro-L-Val) [compound 11], in assay [1] (setting [4]), the MIC range result is “not toxic”. The “toxicity against Rhodococcus fascians” value with Rhodococcus fascians LMG is “toxicity similar to that of chloramphenicol”.

As for `O=C1N[C@@H](Cc2ccc(O)cc2)C(=O)N2CCC[C@@H]12` [compound 9, cyclo(L-Pro-L-Tyr)], in the assay on Phytophthora infestans, the “antifungal activity against Phytophthora infestans” value is on record as “showed antifungal activity”. In assay [1] (setting [4]), the MIC range lay in the range of 15 to 20 µg/mL. In addition, the “antifungal activity against Plasmopara viticola” value with Plasmopara viticola is on record as “showed antifungal activity”.

For the molecule `C/C=C(\NC(=O)C(NC(=O)C(CC(C)C)NC(=O)C(CCC(N)=O)NC(=O)C(NC(=O)C(NC(=O)C(CC(C)C)NC(=O)C(CO)NC(=O)C(NC(=O)C(CC(C)C)NC(=O)C(CO)NC(=O)C1CCCN1C(=O)/C(=C/C)NC(=O)CC(O)CCCCC)C(C)C)C(C)C)C(C)C)C(C)C)C(=O)NC1C(=O)N[C@@H](CC(C)C)C(=O)N[C@@H](CCO)C(=O)NC(CCN)C(=O)NC(CCCCN)C(=O)OC1C` (stereo partly drawn) [compound 7, tolaasin D] ({Octanoyl(3-OH)}-[Dhb][ξP][ξS][ξL][ξV][ξS][ξL][ξV][ξV][ξQ][ξL][ξV][Dhb][ξT]L[hSer][ξDab][ξK]; ester 14-C), the MIC range in assay [1] (setting [3]) is 0.1 to 0.2 µg/mL. For the same molecule, in assay [2], the MIC came to 0.2 µg/mL (≈ 0.101 µM).

For `C/C=C(\NC(=O)[C@H](NC(=O)[C@H](CC(C)C)NC(=O)[C@@H](CCC(N)=O)NC(=O)[C@@H](NC(=O)[C@H](NC(=O)[C@@H](CC(C)C)NC(=O)[C@@H](COC(C)=O)NC(=O)[C@H](NC(=O)[C@@H](CC(C)C)NC(=O)[C@@H](COC(C)=O)NC(=O)[C@H]1CCCN1C(=O)/C(=C/C)NC(=O)CC(CCCCC)OC(C)=O)C(C)C)C(C)C)C(C)C)C(C)C)C(=O)N[C@H]1C(=O)N[C@@H]([C@@H](C)CC)C(=O)N[C@@H](CCOC(C)=O)C(=O)N[C@H](CCNC(C)=O)C(=O)N[C@@H](CCCCNC(C)=O)C(=O)O[C@@H]1C` (stereo partly drawn) [compound 15, hexacetyl tolaasin I] (X1-[Dhb][dP][dS](Ac)[dL][dV][dS](Ac)[dL][dV]V[dQ]L[dV][Dhb][d(aThr)]I[hSer](Ac)[dDab](Ac)K(Ac); ester 14-C), the MIC range in assay [1] (lipodepsipeptides and derivatives, range against the pathogenic bacteria and C. truncatum only) fell in the range of 0.7 to 1 µg/mL; in assay [1] (setting [3]) it was 0.7 to 1 µg/mL. In addition, the minimum inhibitory concentration (MIC) in assay [2] turned out to be 1 µg/mL (≈ 0.446 µM).

On to `O=C1N[C@@H](Cc2ccc(O)cc2)C(=O)N2CCC[C@H]12` [compound 14, cyclo(D-Pro-L-Tyr)], for which, in assay [1] (2,5-diketopiperazines), the “reduction of activity with respect to that of 9” value is recorded as 50–60 times.

As for `CC(C)C[C@@H]1NC(=O)[C@@H]2CCCN2C1=O` [compound 13, cyclo(L-Pro-L-Leu)], the minimal inhibitory concentration (MIC) worked out at 15 µg/mL (≈ 71.3 µM) in the assay on Bacillus subtilis PY79 and 30 µg/mL (≈ 143 µM) against Bacillus megaterium QMB. In addition, the “reduction of activity with respect to that of 9” value in assay [1] (2,5-diketopiperazines) is 40–50 times.

Take WLIP methyl ester [WILP methyl ester]: in assay [2], the minimal inhibitory concentration (MIC) came out at 5 µg/mL.

In turn, `C/C=C(\NC(=O)[C@H](NC(=O)[C@H](CC(C)C)NC(=O)[C@@H](CCC(N)=O)NC(=O)[C@@H](NC(=O)[C@H](NC(=O)[C@@H](CC(C)C)NC(=O)[C@@H](CO)NC(=O)[C@H](NC(=O)[C@@H](CC(C)C)NC(=O)[C@@H](CO)NC(=O)[C@H]1CCCN1C(=O)/C(=C/C)NC(=O)CC(O)CCCCC)C(C)C)C(C)C)C(C)C)C(C)C)C(=O)N[C@H]1C(=O)N[C@@H]([C@@H](C)CC)C(=O)N[C@@H](CCO)C(=O)N[C@H](CCN)C(=O)N[C@@H](CCCCN)C(=O)O[C@@H]1C` (stereo partly drawn) [compound 1, tolaasin I] ({Octanoyl(3-OH)}-[Dhb][dP][dS][dL][dV][dS][dL][dV]V[dQ]L[dV][Dhb][d(aThr)]I[hSer][dDab]K; ester 14-C) returned an MIC in assay [2] of 0.6 µg/mL (≈ 0.302 µM). This MIC lies about 8.3-fold lower than the previous one.

Broadly, the MIC is the lowest concentration found to suppress growth. A high value points to a less susceptible organism.
